Data: US20040121474A1, “Detection and evaluation of chemically-mediated and ligand-mediated t-cell activation using optophoretic analysis” (Genoptix, Inc, priority 2002, published 2004)

How the values were obtained:
HL-60 cells = assay: Fast scan analysis, differentiation of HL-60 cells; format: cell-based; settings: 400 ng/ml PMA, differentiation into monocytes/macrophages
Procedure: (§1) Fast scan analysis was also performed on HL-60 cells that were treated with PMA and DMSO. A time course evaluation of PMA treated HL-60 cells was performed with fast scan data taken at 16 hours, 24 hours, 40 hours, and 72 hours post-treatment with 400 ng/ml PMA. A control sample of HL-60 cells was also tested using EtOH as the vehicle for purposes of comparing the differentiated cells with the undifferentiated HL-60 cells. The PMA-treated and control cells were harvested and trypsinized. The samples were then resuspended in PBS/1% BSA. A set of samples was also obtained and left as pellets at 4° C. for subsequent FACS analysis.
A time course evaluation of DMSO treated HL-60 cells was performed with fast scan data taken at 16 hours, 24 hours, 40 hours, and 70 hours post-treatment with 1% DMSO. A control sample of HL-60 cells was also tested for purposes of comparing the differentiated cells with the undifferentiated HL-60 cells. The DMSO-treated and control cells were then harvested and resuspended in PBS/1% BSA. A set of samples was also obtained and left as pellets at 4° C. for subsequent FACS analysis.

[1] = tested on: CD11b expression in HL-60 cells; assay: FACS CD11b expression profile; format: cell-based; settings: 400 ng/ml PMA
Procedure: as §1
FIG. 145 illustrates a histogram of the travel distance of the control cells as well as the PMA-treated cells at 16 hours, 24 hours, 40 hours, and 72 hours post-treatment. FIG. 146 illustrates the mean travel distances of the control cells as well as the PMA-treated cells at 16 hours, 24 hours, 40 hours, and 72 hours post-treatment. FIG. 147 illustrates the FACS CD11b expression profile in PMA-treated HL-60 cells as well as the control. CD11b is a known marker of cellular differentiation and is expressed on the surface of differentiating cells. […] The data illustrate that Optophoretic analysis can be used as an assay for the detection and quantification of cellular differentiation. […]

For `CCCCCCCCCCCCCC(=O)O[C@@H]1[C@@H](C)[C@@]2(O)[C@@H](C=C(CO)C[C@]3(O)C(=O)C(C)=C[C@@H]23)[C@@H]2C(C)(C)[C@]12OC(C)=O` [PMA, phorbol 12 myristate 13-acetate], the “time after treatment at which Optophoretic analysis detected cellular differentiation” value (HL-60 cells) was at most 16 h and the “time after treatment at which a noticeable change in CD11b expression levels was observed” value [1] was “about 40 hours”.
